What was measured:
BALB/c mice = assay: Tail suspension test (immobility time); assay type: in vivo, mouse; conditions: continuous mirtazapine 10 mg/kg/d (drug and always); day 22 after tumor inoculation
Description: (§1) Second, all animal study protocols were approved by the Institutional Animal Care and Use Committee (IACAU) of National Yang Ming University. Mirtazapine (0.25 mg) was dissolved in 0.05 ml of 0.9% NaCl plus 0.5% absolute ethanol for each mouse (i.e. 10 mg/kg.) Male BALB/c mice (initial weights 25±2 g, and purchased from the National Laboratory Animal Center, Taipei, Taiwan) were housed in the cages, five mice per cage, under a 12:12 h reverse light/dark cycle with lights off at 6 pm Animals were handled and weighed daily for a week to reduce any non-specific stress responses. […] “Wild-type” means the mice are monitored without tumor inoculation and mirtazapine treatment, drug means the mice are monitored with continuous mirtazapine treatment but without tumor inoculation, never means the mice are monitored with tumor inoculation and daily 0.05 ml of 0.9% NaCl plus 0.5% absolute ethanol treatment but without mirtazapine treatment, always means the mice are monitored with mirtazapine treatment initiated 2 weeks before the tumor inoculation, and concurrent means the mice are monitored with tumor inoculation and mirtazapine treatment on the same day, and after means the mice are monitored with mirtazapine treatment initiated 2 weeks post the tumor inoculation. […]

IL-12p70 = assay: Serum IL-12p70 (sIL-12) ELISA in BALB/c mice; assay type: in vivo, mouse
Description: (§2) Second, all animal study protocols were approved by the Institutional Animal Care and Use Committee (IACAU) of National Yang Ming University. Mirtazapine (0.25 mg) was dissolved in 0.05 ml of 0.9% NaCl plus 0.5% absolute ethanol for each mouse (i.e. 10 mg/kg.) Male BALB/c mice (initial weights 25±2 g, and purchased from the National Laboratory Animal Center, Taipei, Taiwan) were housed in the cages, five mice per cage, under a 12:12 h reverse light/dark cycle with lights off at 6 pm Animals were handled and weighed daily for a week to reduce any non-specific stress responses. And then, please refer to FIG. 1A and FIG. 1B, FIG. 1A and FIG. 1B are diagrams showing the experimental designs according to an embodiment of the present invention. […] “Wild-type” means the mice are monitored without tumor inoculation and mirtazapine treatment, drug means the mice are monitored with continuous mirtazapine treatment but without tumor inoculation, never means the mice are monitored with tumor inoculation and daily 0.05 ml of 0.9% NaCl plus 0.5% absolute ethanol treatment but without mirtazapine treatment, always means the mice are monitored with mirtazapine treatment initiated 2 weeks before the tumor inoculation, and concurrent means the mice are monitored with tumor inoculation and mirtazapine treatment on the same day, and after means the mice are monitored with mirtazapine treatment initiated 2 weeks post the tumor inoculation. That is, the mice were assayed on day 22 for behaviors, and then sacrificed for the measurement of lymphocyte subsets and performed with ex vivo autoradiography.
(§3) As to the quantification of interleukin-12 (hereafter called “IL-12”), the whole blood withdrawn from the pouch of each mouse was centrifuged at 600×g for 20 min, and serum was collected. The serum IL-12p70 (sIL-12) level was determined using an ELISA kit (R&D Systems, Taiwan). Identification for the lymph node cluster of differentiated CD4+ T helper and CD8+T-cytotoxic lymphocyte subsets was assayed. Briefly, the lymphocytes isolated from the lymph nodes of groins of mice were stained with phycoerythrin-conjugated antimouse CD4 (CD4-PE) monoclonal antibody and peridininchlorophyll-protein-complex-conjugated anti-mouse CD8 (CD8-PerCP) monoclonal antibody (BioLegend, USA). Lymphocyte subsets were identified by FACS analysis using a FACS Calibur flow cytometer. Immunohistochemistry (IHC) of CD4 and CD8 was also performed on day 42 post the tumor inoculation. Tumors were then removed, paraffin embedded, and […] sectioning was performed. The sections were immunohistostained with antibodies against CD4 (BioLegend, USA) and CD8 (BioLegend, USA), respectively. The procedures of immunohistostaining were followed the protocols provided with the IHC kit (Millipore, USA). All images were digitally captured on a Scanscope CS system (Aperio, USA).

CD4+ and CD8+ T cells = assay: Lymph node CD4+ and CD8+ T lymphocyte subsets by FACS; assay type: in vivo, mouse; conditions: flow cytometry
Description: Preferably, the results as shown in FIG. 4C and FIG. 4D are performed by a flow cytometer, and a target cell population will be screened out by utilizing at least one flow cytometer to identify different surface markers of different cells. Flow cytometry allows for single cell analysis at speeds far surpassing any other single cell analysis technology in the art. This enables a statistically significant number of cells to be analyzed faster than using other alternative techniques. In a preferred embodiment, a flow cytometer is used with any suitable sample preparation robot or liquid handler that is known in the art. Furthermore, a single laser flow cytometer is used in an embodiment for the analyzing step. In another embodiment, a multi-laser flow cytometer is used for the analyzing step and the present invention is not limited thereto.
as §2, §3

[1] = mouse, in vivo
Description: as §1

[2] = group Always, CT26/luc tumor-bearing
[3] = group Concurrent, CT26/luc tumor-bearing
[4] = group Drug: continuous mirtazapine 10 mg/kg/d, no tumor
[5] = group after, CT26/luc tumor-bearing

CN1CCN2c3ncccc3Cc3ccccc3C2C1 (stereo not shown) [mirtazapine]
immobility time (BALB/c mice): significantly decreased
sIL-12 concentration increase (IL-12p70; group after (never: 13 folds)): 16 folds
sIL-12 concentration (IL-12p70; group after, 6 weeks post tumor inoculation): dropped to the control level
sIL-12 concentration increase to peak level (IL-12p70; group always, peak at 1 wk post tumor cell inoculation): 18 folds
sIL-12 concentration increase (IL-12p70; group concurrent (never: 13 folds)): 17 folds
sIL-12 concentration increase to peak level (IL-12p70; group drug (no tumor), peak at 0 wk post tumor cell inoculation): 13 folds
sIL-12 concentration (IL-12p70; group drug, 4 wks post tumor cell inoculation, never 7 pg/ml): 42 pg/mL
CD4+ T cells (10^4 events) (CD4+ and CD8+ T cells; [2]): 29.75 ± 1.96%
CD8+ T cells (10^4 events) (CD4+ and CD8+ T cells; [2]): 32.77 ± 7.43%
CD4+ T cells (10^4 events) (CD4+ and CD8+ T cells; [3]): 25.77 ± 0.73%
CD8+ T cells (10^4 events) (CD4+ and CD8+ T cells; [3]): 22.41 ± 5.03%
CD4+ T cells (10^4 events) (CD4+ and CD8+ T cells; [4]): 30.97 ± 1.40%
CD8+ T cells (10^4 events) (CD4+ and CD8+ T cells; [4]): 30.95 ± 6.57%
CD4+ T cells (10^4 events) (CD4+ and CD8+ T cells; [5]): 22.58 ± 1.15%
CD8+ T cells (10^4 events) (CD4+ and CD8+ T cells; [5]): 15.86 ± 4.78%
body weight change (general toxicity) [1]: no significant body weight change
